Experimental data taken from patent US11477985B2, “Herbicidal mixtures comprising L-glufosinate or its salt and at least one photosynthesis inhibitor” (BASF SE, priority 2017, dated 2022).

Assays:
Format in all cases: in vivo
Avena fatua = assay: Post emergence treatment, greenhouse pot test, herbicidal activity against AVEFA
Excerpt: (§1) Synergism can be described as an interaction where the combined effect of two or more compounds is greater than the sum of the individual effects of each of the compounds. The presence of a synergistic effect in terms of percent control, between two mixing partners (X and Y) can be calculated using the Colby equation (Colby, S. R., 1967, Calculating Synergistic and
(§2) When the observed combined control effect is greater than the expected (calculated) combined control effect (E), then the combined effect is synergistic.
(§3) However, the weed control afforded by the compounds, mixtures or compositions is not limited to these species. The analysis of synergism or antagonism between the mixtures or compositions was determined using Colby's equation.
(§4) The culture containers used were plastic flowerpots containing loamy sand with approximately 3.0% of humus as the substrate. The seeds of the test plants were sown separately for each species and/or resistant biotype. For the pre-emergence treatment, the active ingredients, which had been suspended or emulsified in water, were applied directly after sowing by means of finely distributing nozzles. The containers were irrigated gently to promote germination and growth and subsequently covered with transparent plastic hoods until the plants had rooted. This cover caused uniform germination of the test plants, unless this had been impaired by the active ingredients. For the post-emergence treatment, the test plants were first grown to a height of 3 to 15 cm, depending on the plant habit, and only then treated with the active ingredients which had been suspended or emulsified in water. For this purpose, the test plants were either sown directly and grown in the same containers, or they were first grown separately as seedlings and transplanted into the test containers a few days prior to treatment. Depending on the species, the plants were kept at 10-25° C. or 20-35° C., respectively. The test period extended to 20 days after treatment. During this time, the plants were tended, and their response to the individual treatments was evaluated. […]

Abutilon theophrasti = assay: Post emergence treatment, greenhouse pot test, herbicidal activity against ABUTH; details: scale 0 to 100
Excerpt: as §1, §2, §3, §4

Setaria viridis = assay: Post emergence treatment, greenhouse pot test, herbicidal activity against SETVI; details: scale 0 to 100
Excerpt: as §1, §2, §3, §4

## CN(C)C(=O)Nc1ccc(Cl)c(Cl)c1 [Diuron, diuron]
Avena fatua; Diuron 125 g ai/ha alone, scale 0 to 100
  Herbicidal activity against AVEFA, Found: 20
Avena fatua; Diuron 250 g ai/ha alone, scale 0 to 100
  Herbicidal activity against AVEFA, Found: 30

## CN(C)C(=O)Nc1cccc(C(F)(F)F)c1 [Fluometuron, fluometuron]
Abutilon theophrasti; Fluometuron 125 g ai/ha alone
  Herbicidal activity against ABUTH, Found: 0
Abutilon theophrasti; Fluometuron 250 g ai/ha alone
  Herbicidal activity against ABUTH, Found: 20

## CP(=O)(O)CC[C@H](N)C(=O)O [L-Glufosinate, (2S)-2-amino-4-[hydroxy(methyl)phosphinoyl]butyric acid]
Setaria viridis; L-Glufosinate 75 g ai/ha alone
  Herbicidal activity against SETVI, Found: 0
Setaria viridis; L-Glufosinate 150 g ai/ha alone
  Herbicidal activity against SETVI, Found: 70
Avena fatua; L-Glufosinate 300 g ai/ha alone, scale 0 to 100, mean of two replications
  Herbicidal activity against AVEFA, Found: 20
Abutilon theophrasti; L-Glufosinate 75 g ai/ha alone
  Herbicidal activity against ABUTH, Found: 0

## O=C(Nc1ccccc1)Nc1cnns1 [Thidiazuron, thiadizuron]
Setaria viridis; Thidiazuron 50 g ai/ha alone
  Herbicidal activity against SETVI, Found: 0
